From patent US20230087994A1, “TARGETED BIFUNCTIONAL DEGRADERS” (YALE UNIVERSITY, priority 2019, published 2023)

Experiments:
HepG2 cells [1] = experiment: MIF-GN3-mediated endocytosis of fluorescently labeled human MIF by HepG2 cells; conditions: for effect of endocytic pathway inhibitors on MIF-GN3-mediated MIF endocytosis: 100 nM MIF, 200 nM MIF-GN3, FIG. 132
Experimental: Human MIF protein was fluorescently labeled with Alexa 488 NHS ester, then incubated with HepG2 cells in the presence of varying levels of MIF-GN3.
Next, inhibitors of various endocytic pathways were utilized to determine if MIF-GN3 mediates MIF endocytosis in a manner consistent with ASGPR (FIG. 132).

HepG2 cells [2] = experiment: DNP-AF3-mediated endocytosis of fluorescently labeled α-DNP antibody by HepG2 cells (flow cytometry); assay type: cell-based, human; conditions: 40 nM DNP-AF3, 100 nM antibody; for effect of endocytic pathway inhibitors on fluorescence of the cell population: FIG. 106
Experimental: The intracellular fluorescence of cells that were incubated at 37° C. with both fluorescently labeled α-DNP antibody and DNP-AF3 for a given amount of time was examined. Cells were then washed, removed from the plate with trypsin, and subjected to flow cytometry. Trypsin treatment is expected to cleave ASGPR and surface-bound α-DNP antibody from cells, and therefore the cellular fluorescence observed in these assays is expected to arise only from internalized antibodies.
It was then determined if reagents which inhibit ternary complex formation inhibit endocytosis mediated by DNP-AF3. In order to account for non-specific antibody association with cells, the mean fluorescence intensity of an aliquot of cells which had been treated with α-DNP antibody but not DNP-AF3 was subtracted from each reading. […] In the presence of 2.38 μM (0.1 mg/mL) ASOR, the cell population fluorescence was decreased to 4.66e5 (FIG. 105); at this ASOR concentration, ternary complex formation is decreased by approximately 70%. Because ternary complex is not inhibited completely at this concentration of ASOR, it is expected that productive endocytic events are still taking place.

[3] = target: human IgG (fluorescently labeled) (human); experiment: cell-based or functional assay
HepG2 cells [4] = experiment: DNP-GN3-mediated endocytosis of fluorescently labeled α-DNP antibody by adherent HepG2 cells; assay type: cell-based, human; conditions: competitive binders at high concentrations; FIG. 88
[5] = target: T1, ASGPR on the surface of immortalized human hepatocyte HepG2 cells (Homo sapiens, UniProt P07306+P07307); experiment: DNP-GN3-mediated ternary complex formation: association of fluorescently labeled α-DNP antibody with HepG2 cells in suspension; assay type: cell-based
T1 sequence (P07306 1-291): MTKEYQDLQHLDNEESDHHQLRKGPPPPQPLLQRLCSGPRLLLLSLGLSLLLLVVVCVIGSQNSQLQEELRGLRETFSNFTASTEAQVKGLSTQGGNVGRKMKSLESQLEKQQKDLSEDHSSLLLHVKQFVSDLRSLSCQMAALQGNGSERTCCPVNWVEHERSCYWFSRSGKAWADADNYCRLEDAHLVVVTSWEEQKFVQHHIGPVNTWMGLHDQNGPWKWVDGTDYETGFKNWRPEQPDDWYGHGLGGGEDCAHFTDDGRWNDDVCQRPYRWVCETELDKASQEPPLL
T1 sequence (P07307 1-311): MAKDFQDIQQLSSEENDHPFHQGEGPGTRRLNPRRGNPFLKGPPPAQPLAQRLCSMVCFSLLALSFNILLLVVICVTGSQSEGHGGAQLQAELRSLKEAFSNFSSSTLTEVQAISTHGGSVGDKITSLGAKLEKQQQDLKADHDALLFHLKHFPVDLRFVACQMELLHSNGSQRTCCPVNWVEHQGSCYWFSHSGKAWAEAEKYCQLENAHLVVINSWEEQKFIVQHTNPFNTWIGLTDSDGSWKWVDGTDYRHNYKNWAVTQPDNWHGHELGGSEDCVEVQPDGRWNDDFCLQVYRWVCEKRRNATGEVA
Source text: It was investigated whether DNP-GN3 could mediate the formation of a ternary complex between a fluorescently labeled α-DNP antibody and ASGPR on the surface of immortalized human hepatocyte HepG2 cells in suspension. […] The observed bell-shaped response to DNP-GN3 concentration is consistent with the prozone effect commonly observed in systems wherein a ternary complex is formed.

HepG2 cells [6] = experiment: DNP-GN3-mediated endocytosis of fluorescently labeled α-DNP antibody by adherent HepG2 cells; assay type: cell-based, human; conditions: DNP-GN3-mediated uptake; FIG. 89
Experimental: It was next explored whether DNP-GN3 mediates the endocytosis of fluorescently labeled α-DNP antibody.
To explore the cellular mechanism of antibody uptake, cells were treated with chemical inhibitors of several endocytic pathways (FIG. 89).

human MIF [7] = target: T2, human MIF (Homo sapiens, UniProt P14174); experiment: Depletion of injected recombinant human MIF from serum in mice; assay type: in vivo; design: injected into mice; conditions: control molecules; FIG. 136
T2 sequence (P14174 2-115 limits assumed): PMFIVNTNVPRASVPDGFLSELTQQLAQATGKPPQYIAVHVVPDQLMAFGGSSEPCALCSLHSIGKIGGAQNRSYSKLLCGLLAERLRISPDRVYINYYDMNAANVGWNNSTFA
Experimental: In vivo human MIF depletion experiments were undertaken to determine whether MIF-GN3 can mediate the depletion of injected recombinant human MIF from serum in mice. Mice were injected with five μg of the human MIF protein. In this experiment, one group of mice was also injected with a single 10 mpk dose of MIF-GN3 along with human MIF protein. It was observed that after four hours, the average level of human MIF in serum in the PBS-treated mice was 1.76 ng/mL (FIG. 134). In mice treated with 10 mpk MIF-GN3, however, the concentration of human MIF in serum was 0.68 ng/mL. One day after the initial injection, human MIF levels had reached background levels for both conditions. […] It was hypothesized that, due to the short half-life of human MIF in serum, investigating human MIF levels at earlier time points may be more informative.
Next, an experiment was performed to determine whether MIF-GN3 could enhance MIF clearance at time points earlier than four hours. Mice were coinjected with recombinant human MIF and 10 mpk MIF-GN3 via either i.p. or i.v. routes. For the PBS control arms, human MIF was injected with PBS. It was observed that in the absence of MIF-GN3, there was a spike in huMIF levels in circulation after 30 minutes (FIG. 135). In the presence of MIF-GN3, however, levels of MIF protein remained low at 30 minutes and no spike in its concentration was observed. By two hours, the levels of human MIF in circulation decreased to background levels. […] In a further experiment, whether an inhibitor of the MIF protein (3w) is able to mediate the protein's depletion from serum was determined. A bifunctional molecule that mediates the depletion of α-DNP antibody from serum was also assayed as a negative control. Neither of these molecules was expected to mediate the formation of a ternary complex between human MIF protein and ASGPR.
In order to confirm that mice injected with one or ten mpk MIF-GN3 had received the injection, and that the observed stability of MIF concentrations in MIF-GN3 treated mice was not the result of injection error, 200 μg of α-DNP antibody was coinjected with the MIF protein in this experiment. […] An investigation of the ability of MIF-GN3 to mediate the depletion of endogenous mouse MIF in vivo was next undertaken. Mice were treated with either PBS or 10 mpk of MIF-GN3. […] One possible explanation for this finding is that MIF protein may be synthesized rapidly, and any increase in degradation mediated by MIF-GN3 may not be of a large enough magnitude to impact the protein's level in serum.

PC3 cells = experiment: Human prostate cancer PC3 tumor growth in mice; assay type: in vivo; conditions: control and comparator arms; FIG. 138
Experimental: The ability of MIF-GN3 to mediate the depletion of MIF in a therapeutically relevant disease model was investigated. […] An experiment was conducted to determine whether the bifunctional molecule MIF-GN3 can deplete sufficient human MIF from serum to slow PC3 tumor growth. Mice were injected with an aliquot of PC3 cells, and the size of the resultant tumors as well as the levels of human MIF in serum were monitored over five weeks. […] Five weeks after the initial PC3 cell injection, the first of the mice reached maximal tumor size ([…]) and was sacrificed (FIG. 138). […] The decrease in human MIF levels mediated by MIF-GN3 is consistent with a mechanism of action in which MIF-GN3 mediates the depletion and degradation of circulating MIF protein. While the α-MIF antibody would not necessarily be expected to decrease the levels of human MIF, it is possible that the antibody mediates MIF neutralization in a manner which masks its signal as determined by ELISA. Alternatively, the α-MIF antibody may mediate depletion or degradation of huMIF by some endocytic mechanism. Another possible explanation is that the α-MIF antibody decrease serum levels of active human MIF to such an extent at early time points that PC3 cells proliferate much more slowly, and therefore fewer cells are actively secreting human MIF.
Mice were sacrificed when their tumor volumes reached 1000 mm^3. […] At this same time point, less than 25% of the mice in any other arm had survived.

human MIF [8] = target: T2, human MIF; experiment: Depletion of human MIF from cell culture supernatant (sandwich ELISA); assay type: cell-based; design: host or cells: exogenous protein added to cell culture; conditions: 24 hours; FIG. 128B
Experimental: The ability of bifunctional MIF-binding molecules to mediate the depletion of human MIF from cell culture was investigated. In these assays, human MIF was present at a concentration of 100 nM, and a sandwich ELISA assay was utilized to measure the concentration of human MIF remaining in the cell culture supernatant. The closely related bifunctional molecules MIF-GN3, MIF-PEG2-GN3, and MIF-PEG4-GN3 were used, as well as the structurally dissimilar molecule MIF-NVS-PEG3-GN3. […] Based on the ease of its synthesis and its efficacy in this experiment, MIF-GN3 was utilized for further studies. It was next investigated whether the MIF inhibitor 3w mediates MIF depletion from cell culture supernatant. […] When cells were treated with 3w, no depletion of exogenous MIF protein was observed after 24 hours (FIG. 128B).

[9] = target: T3, asialoglycoprotein receptor (ASGPR) on the surface of immortalized human hepatocyte HepG2 cells (human) (UniProt P07306); experiment: competition, flow cytometry: inhibition of DNP-GN3-mediated association of fluorescent α-DNP antibody with HepG2 cells in suspension (ASGPR on cells)
T3 sequence (looked up) 1: T1 sequence (P07306 1-291)
T3 sequence (looked up) 2: T1 sequence (P07307 1-311)

[10] = target: T3, asialoglycoprotein receptor (ASGPR) on the surface of immortalized human hepatocyte HepG2 cells (human); experiment: competition, flow cytometry on HepG2 cells against 40 nM DNP-AF3 and 100 nM α-DNP antibody
[11] = target: T3, asialoglycoprotein receptor (ASGPR) on the surface of immortalized human hepatocyte HepG2 cells (human); experiment: cell-based or functional assay

COc1ccc2c(c1)c(CC(=O)O)c(C)n2C(=O)c1ccc(Cl)cc1 [indomethacin, Indomethacin] was tested, and the “effect of endocytic pathway inhibitors on MIF-GN3-mediated MIF endocytosis” value (HepG2 cells [1]) was “did not decrease” and the “effect of endocytic pathway inhibitors on fluorescence of the cell population” value (HepG2 cells [2]) was “did not significantly decrease”.

With FcIII-BCN-GN3 (peptide) the endocytosis of human IgG by HepG2 cells over time and concentration: most effective FcIII-BCN-GN3 concentration [3] was 1 µM.

In the case of CC(=O)N[C@H]1C(O)O[C@H](CO)[C@H](O)[C@@H]1O (stereo partly shown) [GalNAc, N-acetylgalactosamine], the “effect on DNP-AF3-mediated α-DNP antibody endocytosis” value (HepG2 cells [2]; ASF 2.07 μM, AF and GalNAc 1.25 mM, FIG. 105) is reported as “significantly decreased cellular fluorescence”, the “effect on DNP-GN3-mediated α-DNP antibody endocytosis” value (HepG2 cells [4]) is reported as “significantly decreased” and the IC50 [5] is reported as 200000 nM.

With C[C@@H]1[C@H](O)[C@@H](C)/C=C/C=C/CC/C=C/C=C/C=C/C=C/C(O[C@H]2O[C@H](C)[C@@H](O)[C@H](N)[C@@H]2O)CC2O[C@](O)(CC(O)C(O)CCC(O)CC(O)CC(O)CC(=O)O[C@H]1C)CC(O)C2C(=O)O (stereo partly shown) [nystatin, Nystatin] the “effect of endocytic pathway inhibitors on MIF-GN3-mediated MIF endocytosis” value (HepG2 cells [1]) was “did not decrease”, the “effect of endocytic pathway inhibitors on fluorescence of the cell population” value (HepG2 cells [2]) was “did not significantly decrease” and the “effect of endocytic pathway inhibitors on intracellular fluorescence” value (HepG2 cells [6]) was “did not significantly decrease”.

In the case of Oc1ccc(-n2cc(-c3ccc4cc(OCCOCCN5CCOCC5)ccc4n3)nn2)cc1F [Compound 3w, reference compound], the “human MIF concentration in serum compared to the PBS control” value (human MIF [7]) is reported as “no significant decreases”, the PC3 tumor growth (PC3 cells) is reported as “not found to decrease tumor growth” and the “depletion of exogenous MIF protein from supernatant” value (human MIF [8]) is reported as “no depletion”.

With N=C(N)NC(=O)c1nc(Cl)c(N)nc1N [amiloride, Amiloride] the “effect of endocytic pathway inhibitors on MIF-GN3-mediated MIF endocytosis” value (HepG2 cells [1]) was “did not impact cellular fluorescence significantly”, the “effect of endocytic pathway inhibitors on fluorescence of the cell population” value (HepG2 cells [2]) was “A decrease in cellular fluorescence” and the “effect of endocytic pathway inhibitors on intracellular fluorescence” value (HepG2 cells [6]) was “did not significantly decrease”.

With O=c1c(-c2ccc(O)cc2)coc2cc(O)cc(O)c12 [genistein, Genistein] the toxicity to cells (HepG2 cells [1]; HepG2 cells with MIF and MIF-GN3) was “toxic to cells” and the “effect of endocytic pathway inhibitors on fluorescence of the cell population” value (HepG2 cells [2]) was “did not significantly decrease”.

For asialoorosomucoid (ligand), the IC50 [9] was 17 nM, the percent decrease of ternary complex formation at 2.38 µM (0.1 mg/mL) ASOR [10] was 70% and the mean fluorescence of the HepG2 cell population (DNP-AF3-mediated α-DNP antibody endocytosis) in the presence of 2.38 µM (0.1 mg/mL) ASOR; approximately 1.31e6 without inhibitor (mean fluorescence) [11] was 466000.

With “FcIII-GN3 (oxidized cyclized form) (peptide)” the endocytosis of Alexa 488-labeled human IgG by HepG2 cells (flow cytometry, six hours): FcIII-GN3 concentration giving maximal uptake [3] was 200 nM.

B1: asialofetuin (ligand, UniProt P12763 19-359, looked up, species assumed)
Alpha-2-HS-glycoprotein: IPLDPVAGYKEPACDDPDTEQAALAAVDYINKHLPRGYKHTLNQIDSVKVWPRRPTGEVYDIEIDTLETTCHVLDPTPLANCSVRQQTQHAVEGDCDIHVLKQDGQFSVLFTKCDSSPDSAEDVRKLCPDCPLLAPLNDSRVVHAVEVALATFNAESNGSYLQLVEISRAQFVPLPVSVSVEFAVAATDCIAKEVVDPTKCNLLAEKQYGFCKGSVIQKALGGEDVRVTCTLFQTQPVIPQPQPDGAEAEAPSAVPDAAGPTPSAAGPPVASVVVGPSVVAVPLPLHRAHYDLRHTFSGVASVESSSGEAFHVGKTPIVGQPSIPGGPVRLCPGRIRYFKI
modifications: desialylated
Work on B1 yielded an IC50 [9] of 65 nM.
